Assay results from US12139481B2, “Compositions comprising macrocycle derivatives incorporating bridged macrocycles and methods of producing and using same” (Southwestern Oklahoma State University, priority 2015, dated 2024).

Experiments:
[1] = tested on: Cryptococcus neoformans ATCC 90113; experiment: Antimicrobial microdilution assay against Cryptococcus neoformans (modified CLSI/NCCLS, optical density); format: cell-based; conditions: for X more potent than Amphotericin B: C. neoformans, ratio of molar IC50 to Amphotericin B; for C. neoformans IC50 / IC50: in vitro, C. neoformans ATCC 90113; for IC50: read-out: C. neoformans IC50 (mol/L)
How it was run: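 Fungicidal endpoint taken by subculturing 5 μL from each clear well onto agar, MFC being the lowest concentration with no regrowth. Duplicate wells of serially diluted compound (20% DMSO/saline) in RPMI pH 6.0, read at 630 nm pre- and post-incubation, under modified CLSI methods. IC50 means 50% growth inhibition against controls.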

[2] = tested on: L. donovani promastigotes; experiment: Antileishmanial Alamar Blue assay on promastigotes; format: cell-based, Leishmania donovani; conditions: for X more potent than Pentamidine: L. donovani, ratio of molar IC50 to Pentamidine; for L. donovani IC50 / IC50: promastigotes, 48 hours, Alamar Blue; for IC50: read-out: L. donavani IC50
How it was run: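 Alamar Blue fluorescence (544/590 nm) quantified growth after 48 hours at 26° C of compound-treated promastigotes. Parasites were seeded at 5×10^5/mL in RPMI 1640 plus 10% FCS; drug range 50-3.1 μg/mL, and IC50 derived by plotting percent growth against test concentration.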

C. krusei ATCC 6258 = experiment: Antifungal broth dilution assay against C. krusei (modified CLSI); format: cell-based, Candida krusei; conditions: for X more potent than Amphotericin B: C. krusei, ratio of molar IC50 to amphotericin B; for C. krusei IC50 / IC50: in vitro; for IC50: read-out: C. krusei IC50 (mol/L)
Method: (§1) General Experimental Procedures. All organisms were obtained from the American Type Culture Collection (Manassas, VA) and include the fungi Candida albicans ATCC 90028, C. glabrata ATCC 90030, C. krusei ATCC 6258, and Cryptococcus neoformans ATCC 90113, and the bacteria Staphylococcus aureus ATCC 29213 and methicillin-resistant S. aureus ATCC 33591 (MRS). All organisms were tested using modified versions of the CLSI (formerly NCCLS) methods. For all organisms, optical density was used to monitor growth (NCCLS, Reference Method for Broth Dilution Antifungal Susceptibility Testing of Yeasts; Approved Standard M27-A2. National Committee on Clinical Laboratory Standards, 2002 22 (15); and NCCLS, Methods for Dilution Antimicrobial Susceptibility Tests for Bacteria that Grow Aerobically; Approved Standard, Seventh Edition M7-A7. National Committee on Clinical Laboratory Standards, 2006. 26(2)).
(§2) Samples (dissolved in DMSO) were serially-diluted in 20% DMSO/saline and transferred (10 μL) in duplicate to 96 well flat bottom microplates. Inocula were prepared by correcting the OD630 of microbe suspensions in incubation broth [RPMI 1640/0.2% dextrose/0.03% glutamine/MOPS @ pH 6.0 (Cellgro) for Candida spp., Sabouraud Dextrose for C. neoformans, and cation-adjusted Mueller-Hinton (Difco) @ pH 7.3 for Staphylococcus spp. to afford an assay volume of […] and final target inocula of: Candida spp. and C. neoformans: 1.5×10^3, and Staphylococcus spp.: 5.0×10^5 CFU/ml. Final sample test concentrations were 1/100th the DMSO stock concentration. […] All organisms were read at either 530 nm using the Biotek Powerwave XS plate reader (Bio-Tek Instruments, Vermont) prior to and after incubation: Candida spp. at 35° C. for 46-50 h, Staphylococcus spp. at 35° C. for 16-20 h, and C. neoformans at 35° C. for 70-74 h. IC50s (concentrations that afford 50% inhibition relative to controls) were calculated using XLfit 4.2 software (IDBS, Alameda, CA) using fit model 201. The MIC is defined as the lowest test concentration that allows no detectable growth. Minimum fungicidal or bactericidal concentrations were determined by removing 5 μl from each clear (or blue) well, transferring to fresh media, and incubating as previously mentioned. The MFC/MBC is defined as the lowest test concentration that kills the organism (allows no growth).
(§3) Primary Analysis. Samples were tested in duplicate at one test concentration (50 μg/mL), and percent inhibitions were calculated relative to blank and growth controls. Samples showing 50% inhibition in at least one test organism were selected for dose response (Secondary) studies.
(§4) Secondary Analysis. Extracts from the Primary Assay, and first-run pure compounds and column fractions were tested in duplicate at 3 test concentrations (5-fold dilutions). Samples dissolved to 20 mg/mL in DMSO were tested at 200, 40, and 8 μg/mL. Samples dissolved to 2 mg/mL in DMSO were tested at 20, 4, and 0.8 μg/mL.

C. glabrata ATCC 90030 = experiment: Antifungal broth dilution assay against C. glabrata (modified CLSI); format: cell-based, Candida glabrata; conditions: for C. glabrata IC50 / IC50: in vitro; for IC50: converted with molecular weight; for X more potent than Amphotericin B: molar IC50 ratio versus amphotericin B
How it was run: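 Growth read by optical density at 530 nm, duplicate wells, 1% final DMSO. Staphylococcus spp.: Mueller-Hinton pH 7.3, 5.0×10^5 CFU/ml, 35 °C for 16-20 h; Candida spp.: RPMI/dextrose/glutamine/MOPS pH 6.0, 1.5×10^3 CFU/ml, 35 °C for 46-50 h. Reported values are 50% inhibition versus controls, no-growth MIC, and killing MFC/MBC.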

[3] = tested on: Staphylococcus aureus ATCC 29213; experiment: Antibacterial broth dilution assay against S. aureus (modified CLSI); format: cell-based; conditions: for S. aureus IC50 / IC50: in vitro; for IC50: converted with molecular weight; for X more potent than ciprofloxacen: molar IC50 ratio versus ciprofloxacen
Method: as §1, §2, §3, §4

[4] = tested on: methicillin-resistant S. aureus ATCC 33591 (MRS); experiment: Antibacterial broth dilution assay against MRSA (modified CLSI); format: cell-based, Staphylococcus aureus; conditions: for MRSa IC50 / IC50: in vitro; for X more potent than ciprofloxacen: molar IC50 ratio versus ciprofloxacen; for IC50: converted with molecular weight
Method: as §1, §2, §3, §4

| Compound | X more potent than Amphotericin B [1] | C. neoformans IC50 [1] [µg/mL] | IC50 [1] [µM] | X more potent than Pentamidine [2] | L. donovani IC50 [2] [µg/mL] | IC50 [2] [µM] | X more potent than Amphotericin B (C. krusei ATCC 6258) | C. krusei IC50 (C. krusei ATCC 6258) [µg/mL] | IC50 (C. krusei ATCC 6258) [µM] | C. glabrata IC50 (C. glabrata ATCC 90030) [µg/mL] | IC50 (C. glabrata ATCC 90030) [µM] | X more potent than Amphotericin B (C. glabrata ATCC 90030) | S. aureus IC50 [3] [µg/mL] | IC50 [3] [µM] | X more potent than ciprofloxacen [3] | MRSa IC50 [4] [µg/mL] | X more potent than ciprofloxacen [4] | IC50 [4] [µM] |
| --- | --- | --- | --- | --- | --- | --- | --- | --- | --- | --- | --- | --- | --- | --- | --- | --- | --- | --- |
| [Co2(m-cyclam-homocyclen)(OAc)2][PF6]2 [AW049] | 1.67 | 0.156 | 0.143 | 0.34 | 16.93 | 15.5 | 0.25 | 6.520 | 5.96 | 1.217 | 1.11 | 1.28 | 5.600 | 5.12 | 0.05 |  |  |  |
| CC(=O)[O-].F[P-](F)(F)(F)(F)F.[Zn+2].c1ccc(CN2CCCN3CCCN(CCCN(Cc4ccccc4)CC3)CC2)cc1 [DJD23, [Zn(Bn2PBCyclam)(OAc)]PF6] | 0.08 | 1.990 |  | 0.85 | 4.32 |  |  |  |  |  |  |  | 6.530 |  | 0.03 | 3.210 | 0.05 |  |
| CC(=O)[O-].F[P-](F)(F)(F)(F)F.[Co+2].c1ccc(CN2CCCN3CCCN(CCCN(Cc4ccccc4)CC3)CC2)cc1 [DJD21, [Co(Bn2PBCyclam)(OAc)]PF6] | 0.05 | 3.510 | 5.13 | 0.26 | 14.12 | 20.7 |  |  |  |  |  |  | 3.590 | 5.25 | 0.05 | 3.710 | 0.04 | 5.43 |
| Clc1cc(CN2CCNCCN3CCN(CC3)CC2)cc(Cl)n1 [OB99, (dcp)1-SB-cyclen] | 0.28 | 0.310 | 0.865 | 0.09 | 20.87 | 58.2 | 0.09 | 5.660 | 15.8 |  |  |  | 7.520 | 21 | 0.01 |  |  |  |
| c1ccc(CN2CCCN3CCCN(CCCN(Cc4ccccc4)CC3)CC2)cc1 [SLK09, Bn2PBCyclam] | 0.11 | 0.910 | 2.16 | 0.87 | 2.56 | 6.09 |  |  |  |  |  |  | 2.270 | 5.4 | 0.05 | 4.960 | 0.02 | 11.8 |
| [Ni2(m-cyclam-homocyclen)(OAc)2][PF6]2•H2O [AW050] | 0.25 | 1.040 | 0.935 | 0.36 | 16.50 | 14.8 |  |  |  |  |  |  | 8.540 | 7.68 | 0.04 | 4.650 | 0.05 | 4.18 |
| [Cu(Bn2PBCyclam)(OAc)]PF6•5H2O [BME10B] | 0.01 | 13.810 | 18.8 | 1.07 | 3.64 | 4.96 |  |  |  |  |  |  | 5.670 | 7.73 | 0.04 | 5.350 | 0.03 | 7.3 |
| CC(=O)[O-].F[P-](F)(F)(F)(F)F.[Ni+2].c1ccc(CN2CCN3CCCN(CC2)CCN(Cc2ccccc2)CC3)cc1 [AW039, [Ni(Bn2PBCyclen)(C2H3O2)]PF6] | 0.02 | 7.640 | 11.7 | 0.14 | 24.41 | 37.2 | 0.17 | 5.610 | 8.56 | 5.030 | 7.68 | 0.18 | 4.73 | 7.22 | 0.04 |  |  |  |
| [Mn2(m-cyclam-homocyclen)][MnCl4]2•12H2O [AW047] | 0.08 | 3.770 | 2.93 |  |  |  |  |  |  |  |  |  | 5.380 | 4.18 | 0.07 | 7.850 | 0.03 | 6.09 |
| c1cc(CN2CCN3CCNCCN(CC3)CC2)ccc1CN1CCN2CCNCCN(CC2)CC1 [JGL19, p-CB-H2Bcyclens] | 0.20 | 0.590 | 1.18 | 0.31 | 8.54 | 17.1 |  |  |  |  |  |  | 2.900 | 5.81 | 0.05 | 1.060 | 0.10 | 2.12 |
| [Fe(Bn2PBCyclen)(C2H3O2)]PF6•1.2NH4PF6 [AW037] | 0.02 | 8.400 | 9.9 | 0.17 | 26.63 | 31.4 |  |  |  |  |  |  | 4.940 | 5.83 | 0.05 | 9.480 | 0.02 | 11.2 |
| c1ccc(CN2CCN3CCN(CC2)CCN(Cc2ccccc2)CC3)cc1 [ANCl4] |  |  |  |  |  |  |  |  |  |  |  |  | 8.810 | 23.3 | 0.01 | 8.570 | 0.01 | 22.6 |
| [Ni2(m-CB-Homocyclens)(OAc)1.9][PF6]2.1 [CDG038] | 0.09 | 3.010 | 2.76 | 0.29 | 19.92 | 18.3 |  |  |  |  |  |  | 9.58 | 8.8 | 0.03 | 9.080 | 0.03 | 8.34 |
